Laboratory results as given in patent US4180655A, “Nitrosourea derivatives” (Suami; Tetsuo, priority 1974, dated 1979).

What was measured:
[1] = tested on: Leukemia L1210 cells; experiment: Chemotherapeutic effect of nitrosourea derivatives on leukemia L1210 in mice; type: in vivo, mice (BDF1/BDF); design: Volume of ascites, Treated: unit not given here
Description: Chemotherapeutic effect of a variety of the nitrosourea derivatives of the formula I according to this invention on leukemia L1210 in mice were investigated by the following method and materials.
A--BDF1 mice (about 6 week-aged; body weight: 22±1 g); each experimental group was composed of 2 male mice.
B--BDF1 mice (about 7 week-aged; body weight: 21±2 g); each experimental group was composed of 3 male mice.
C--BDF mice (about 7 week-aged; body weight: 22±2 g); each experimental group was composed of 2 male mice.
D--BDF mice (about 6 week-aged; body weight: 21±2 g); each experimental group was composed of 3 male mice.
E--BDF1 mice (about six week-aged; body weight 20±1 g); each experimental group was composed of 3 female mice.
F--BDF1 mice (about six week-aged; body weight 21±1 g); each experimental group was composed of 3 male mice.
A--Leukemia L1210 cells (2.1×10^6 cells/ 0.05 ml/mouse) were intraperitoneally inoculated.
B--Leukemia L1210 cells (1.9×10^6 cells/0.05 ml/mouse) were intraperitoneally inoculated.
C--Leukemia L1210 cells (1.2×10^6 cells/0.05 ml/mouse) were intraperitoneally inoculated.
A--The test compound was dissolved in a physiological saline solution and administered intraperitoneally at a volume of 0.1 ml/mouse. The administration was made at once/day, from 24 hours after i.p. inoculation of L1210 cells, for 3 days. The effect of test compound was assessed by mean survival days of mice, percent increase in life-span, anatomical findings involving the volume of ascites.
B--The same as that used in A except that the drug administration was continued for 5 days.
C--The same as that used in A except that the test compound was suspended in 0.5% CMC solution and that the drug administration was continued for 5 days.
D--The same as that used in A except that the test compound was dissolved in distilled water for injection purposes.
The percentage increase in life-span (ILS) was calculated as follows:
Percentage increase in life-span (ILS)=T-C/C×100
T: The mean survival days of the treated animals.
C: The mean survival days of the untreated control.

[2] = LD50 value / toxicity in the intraperitoneal administration to BDF1 mice; details: mouse, in vivo, ip
Description: The new nitrosourea derivatives according to this invention are further characterized by their low toxicity, thus satisfying their practical application for treating leukemia and tumor diseases.

[3] = 0.2 mg/kg i.p. once/day for 3 days (procedure A, saline)
[4] = 0.5 mg/kg i.p. once/day for 3 days (procedure A, saline)
[5] = 1 mg/kg i.p. once/day for 3 days (procedure A, saline)
[6] = 2 mg/kg i.p. once/day for 3 days (procedure A, saline)
[7] = 4 mg/kg i.p. once/day for 3 days (procedure A, saline)
[8] = 5 mg/kg i.p. once/day for 3 days (procedure A, saline)
[9] = 6.25 mg/kg i.p. once/day for 3 days (procedure A, saline)
[10] = 8 mg/kg i.p. once/day for 3 days (procedure A, saline)
[11] = 10 mg/kg i.p. once/day for 3 days (procedure A, saline)
[12] = 100 mg/kg i.p. once/day for 3 days (procedure D, distilled water)
[13] = 200 mg/kg i.p. once/day for 3 days (procedure D, distilled water)
[14] = 400 mg/kg i.p. once/day for 3 days (procedure D, distilled water)

O=NN(CCCl)C(=O)N[C@@H]1O[C@H](CO)[C@@H](O)[C@H](O)[C@H]1O [Compound 1, 1-(2-chloroethyl)-3-(β-D-glucopyranosyl)-1-nitrosourea]
Survival days, Treated (mean) [1, 3]: 12.0 days
Volume of ascites, Treated [1, 3]: 4.2
Survival days, Treated (mean) [1, 4]: 12.5 days
Volume of ascites, Treated [1, 4]: 4.2
Survival days, Treated (mean) [1, 5]: 12.9 days
Volume of ascites, Treated [1, 5]: 5.0
Survival days, Treated (mean) [1, 6]: 15.3 days
Volume of ascites, Treated [1, 6]: 2.5
Survival days, Treated (mean) [1, 7]: 40.3 days
Volume of ascites, Treated [1, 7]: 0
Survival days, Treated (mean) [1, 8]: 15.3 days
Volume of ascites, Treated [1, 8]: 1.5
Survival days, Treated (mean) [1, 9]: > 40.1 days
Volume of ascites, Treated [1, 9]: 0
Survival days, Treated (mean) [1, 10]: 95.9 days
Volume of ascites, Treated [1, 10]: 0
Survival days, Treated (mean) [1, 11]: 95.9 days
Volume of ascites, Treated [1, 11]: 0
ILS at 0.2 mg/kg ([1]; Mus musculus, L1210, ip, 72 h, 0.2 mg/kg i.p. once/day for 3 days (procedure A, saline), read-out: Percentage increase in life-span (ILS)): 29%
ILS at 0.5 mg/kg ([1]; Mus musculus, L1210, ip, 72 h, 0.5 mg/kg i.p. once/day for 3 days (procedure A, saline), read-out: Percentage increase in life-span (ILS)): 34.4%
ILS at 1 mg/kg ([1]; Mus musculus, L1210, ip, 72 h, 1 mg/kg i.p. once/day for 3 days (procedure A, saline), read-out: Percentage increase in life-span (ILS)): 38.7%
ILS at 2 mg/kg ([1]; Mus musculus, L1210, ip, 72 h, 2 mg/kg i.p. once/day for 3 days (procedure A, saline), read-out: Percentage increase in life-span (ILS)): 64.5%
ILS at 4 mg/kg ([1]; Mus musculus, L1210, ip, 72 h, 4 mg/kg i.p. once/day for 3 days (procedure A, saline), read-out: Percentage increase in life-span (ILS)): 333%
ILS at 5 mg/kg ([1]; Mus musculus, L1210, ip, 72 h, 5 mg/kg i.p. once/day for 3 days (procedure A, saline), read-out: Percentage increase in life-span (ILS)): 64.5%
ILS at 6.25 mg/kg ([1]; Mus musculus, L1210, ip, 72 h, 6.25 mg/kg i.p. once/day for 3 days (procedure A, saline), read-out: Percentage increase in life-span (ILS)): > 331%
ILS at 8 mg/kg ([1]; Mus musculus, L1210, ip, 72 h, 8 mg/kg i.p. once/day for 3 days (procedure A, saline), read-out: Percentage increase in life-span (ILS)): 931%
ILS at 10 mg/kg ([1]; Mus musculus, L1210, ip, 72 h, 10 mg/kg i.p. once/day for 3 days (procedure A, saline), read-out: Percentage increase in life-span (ILS)): 931%
LD50 [2]: ~25 mg/kg

CN(N=O)C(=O)N[C@@H](CO)[C@@H](O)[C@H](O)[C@H](O)CO [Compound 12, N-carbamoyl-N'-methyl-N'-nitroso-D-glucosaminol, reference compound]
Survival days, Treated (mean) [1, 12]: 13.9 days
Volume of ascites, Treated [1, 12]: 3.0
Survival days, Treated (mean) [1, 13]: 15.0 days
Volume of ascites, Treated [1, 13]: 4.0
Survival days, Treated (mean) [1, 14]: 13.4 days
Volume of ascites, Treated [1, 14]: 3.4
ILS at 100 mg/kg ([1]; Mus musculus, L1210, ip, 72 h, 100 mg/kg i.p. once/day for 3 days (procedure D, distilled water), read-out: Percentage increase in life-span (ILS)): 30%
ILS at 200 mg/kg ([1]; Mus musculus, L1210, ip, 72 h, 200 mg/kg i.p. once/day for 3 days (procedure D, distilled water), read-out: Percentage increase in life-span (ILS)): 40%
ILS at 400 mg/kg ([1]; Mus musculus, L1210, ip, 72 h, 400 mg/kg i.p. once/day for 3 days (procedure D, distilled water), read-out: Percentage increase in life-span (ILS)): 25%
